Laboratory results from patent US11672786B2, “Methods of treating diseases associated with repeat instability” (The Hospital for Sick Children, priority 2016, dated 2023).
Where “and” joins values, the source holds several entries; their conditions need not be identical. Identical values can stand only once.

System: HT1080-(CAG)850 cells
Experiment: small-pool PCR repeat instability, proliferating HT1080-(CAG)850 cells producing rCAG transcript
Format: cell-based, human
Conditions: 30 days; for % Contraction / % Expansion: cut-off ±25 repeats
Description: The construction of the HT1080-(CAG)850 cell model was described previously (Sathasivam et al., 1997, Hum. Genet., 99:692-5). Briefly, HT1080 (ATCC) human fibrosarcoma cells were co-transfected with a plasmid (LC15-R) containing 800-850 (CTG)●(CAG) repeats (Nakatani et al., 2005, Nat. Chem. Biol., 1:39-43) and a plasmid encoding PhiC31 integrase. Transfection was performed with a Nucleofector (Lonza, Basel, Switzerland), and stably transfected clones were selected with puromycin. […] The HT1080-non-transcribing (CAG)850 cell model was established by transfecting a plasmid modified from pLC16 by inserting an additional SV40 polyadenylation signal downstream of the repeats (in addition to the original polyadenylation signals located upstream of the repeats), so that CAG/CTG repeats are floxed by transcription-terminator elements. The AttB-PhiC31 system has been widely used for single copy integration. […] The HT1080 model cells and an HD primary fibroblast cell line, GM09197 (Coriell Biorepository) with a large expanded allele of 180 CAG repeats and a non-expanded allele of 23 repeats (Sathasivam et al., 1997, Hum. Genet., 99:[…]), the HD primary fibroblast cell line, GM02191 (Coreill Biorepository) with an expanded allele of 43 CAG repeats and a non-expanded allele of 19 repeats, were cultured at 37° C. with 5% CO2 in Dulbecco's modified Eagle's medium supplemented with 10% fetal bovine serum and 1% penicillin/streptomycin. Cells were treated with or without continuous exposure to 50-μM NA for 30 days (HT1080 cells) or for 40 days (fibroblast cells). For experiments on non-proliferating cells, HT1080 cells were grown to confluence and then treated for the same period. WST-1 assay was performed according to the manufacturer's instructions (Roche, Basel, Switzerland). All cell lines were tested to be free of Mycoplasma. Three biological replicates were performed for each experiment.
Genomic DNA was extracted from HT1080-(CAG)850 clones and HD primary fibroblasts using the Gentra Puregene Cell Kit (Qiagen, Valencia, Calif.). The expanded (CTG)●(CAG) repeats were sized by small-pool PCR (sp-PCR) followed by Southern blot as described previously (Sathasivam et al., 1997, Hum. Genet., 99:692-5). For HT1080 models, small-pool PCR (spPCR) was performed with the input of 1.4-1.7 genome equivalents. The repeat size difference in the models is, at most, 3000 base-pairs, therefore, being strictly conservative, a bias toward amplifying the shorter allele can be possible, even under optimized PCR conditions described herein. For HD primary fibroblasts, sp-PCR & Southern blots were performed as described previously with slight modifications (Tome et al., 2013, PLoS Genet., 9:e1003280). Briefly, the PCR primers listed in Table 1 were used, and blots were hybridized with a DIG-labeled (CAG)7 locked nucleic acid probe (Nakamori et al. 2009, Neuromuscul. Disord., 19:759-62). At least 50 alleles were analyzed for each of the three experiments (more than 150 alleles for a total study). Repeat analyses are summarized in Table 2, compiled from complete small-pool-PCR datasets for each repetition of each experiment. For the histograms in FIGS. 4D, 4E, 10, 11, 5B, 5D, 5E, 14 and 15B, the Y-axis, “% of repeat population” was calculated by determining the proportion of >50 individual small-pool PCR reactions across the CAG repeat tract, that harbored a certain size of repeat product with a certain length. Cell clones were grown 30 or 40 days with or without NA (see, for example, Sathasivam et al., 1997, Hum. Genet., 99:692-5). Specifically, the histograms of repeat length distributions were from at least two different cell clones. Length distributions were determined as follows: Small-pool PCR followed by Southern blot for analysis of CAG/CTG repeat length.

[1] = 50 uM NA, Total of 3 experiments
[2] = 50 uM NA, single experiments Ex 1-3

## naphthyridine-azaquinolone
50 μM NA
  magnitude of repeat units lost (greatest): ≤ 790 repeats
[1]
  % Unchanged: 26.7%
  % Contraction: 59.4%
  % Expansion: 13.9%
50 uM NA, Total of 3 experiments, all alleles
  Average Change of Repeat Size: −125.7 number of repeats
[2]
  % Unchanged: 28.4% and 27.4% and 23.7%
  % Contraction: 56.8% and 60.0% and 61.0%
  % Expansion: 14.8% and 11.3% and 15.2%
